Test results reported in US11053204B2, “Pyrimidinyloxy benzene derivatives as herbicides” (FMC Corporation, priority 2015, dated 2021).

Tests used:
Assay type in all cases: in vivo
[1] = tested on: Italian ryegrass (Lolium multiflorum); assay: Test A preemergence, visual injury rating; conditions: 0 to 100 scale (0 no effect, 100 complete control)
Method in brief: (§1)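 Injury scores run from 0, no effect, to 100, complete control, judged by eye against untreated plants roughly 10 days after treatment. Chemicals carried a surfactant in a non-phytotoxic solvent and went onto loam–sand soil preemergence or onto one- to two-leaf seedlings postemergence.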

[2] = tested on: barnyardgrass (Echinochloa crus-galli); assay: Test A preemergence, visual injury rating; conditions: 0 to 100 scale (0 no effect, 100 complete control)
Method in brief: as §1

[3] = tested on: giant foxtail (Setaria faberii); assay: Test A preemergence, visual injury rating; conditions: 0 to 100 scale (0 no effect, 100 complete control)
Method in brief: as §1

[4] = tested on: ragweed (common ragweed, Ambrosia elatior); assay: Test A preemergence, visual injury rating; conditions: 0 to 100 scale (0 no effect, 100 complete control)
Method in brief: as §1

[5] = tested on: blackgrass (Alopecurus myosuroides); assay: Test C preemergence, plant response rating; conditions: Preemergence
Method in brief: (§2)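 Pre-emergence: seeds sown in loam soil–sand blend or silt loam and sprayed with test chemicals in a non-phytotoxic solvent mixture with surfactant. Post-emergence: plants 2 to 18 cm (1- to 4-leaf stage) in peat-based potting medium, same formulation. Greenhouse 13 to 15 d; visual rating 0 (no effect) to 100 (complete control) versus controls.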

corn (Zea mays) = assay: Test C preemergence, plant response rating; conditions: Preemergence
Method in brief: as §2

[6] = tested on: crabgrass, large (large crabgrass, Digitaria sanguinalis); assay: Test C preemergence, plant response rating; conditions: Preemergence
Method in brief: as §2

[7] = tested on: foxtail, giant (giant foxtail, Setaria faberii); assay: Test C preemergence, plant response rating; conditions: Preemergence
Method in brief: as §2

[8] = tested on: lambsquarters (Chenopodium album); assay: Test C preemergence, plant response rating; conditions: Preemergence
Method in brief: as §2

[9] = tested on: morningglory (Ipomoea coccinea); assay: Test C preemergence, plant response rating; conditions: Preemergence
Method in brief: as §2

[10] = tested on: nutsedge, yellow (yellow nutsedge, Cyperus esculentus); assay: Test C preemergence, plant response rating; conditions: Preemergence
Method in brief: as §2

[11] = tested on: oilseed rape (Brassica napus); assay: Test C preemergence, plant response rating; conditions: Preemergence
Method in brief: as §2

[12] = tested on: ragweed (common ragweed, Ambrosia elatior); assay: Test C preemergence, plant response rating; conditions: Preemergence
Method in brief: as §2

[13] = tested on: ryegrass, Italian (Italian ryegrass, Lolium multiflorum); assay: Test C preemergence, plant response rating; conditions: Preemergence
Method in brief: as §2

soybean (Glycine max) = assay: Test C preemergence, plant response rating; conditions: Preemergence
Method in brief: as §2

[14] = tested on: velvetleaf (Abutilon theophrasti); assay: Test C preemergence, plant response rating; conditions: Preemergence
Method in brief: as §2

[15] = tested on: waterhemp (common waterhemp, Amaranthus rudis); assay: Test C preemergence, plant response rating; conditions: Preemergence
Method in brief: as §2

[16] = tested on: wheat (winter wheat, Triticum aestivum); assay: Test C preemergence, plant response rating; conditions: Preemergence
Method in brief: as §2

## N#Cc1cccc(Oc2ncc(Cl)cn2)c1C(=O)OCCC(F)(F)F [Compound 30]
[1]; 125 g ai/ha
  Ryegrass, Italian plant response rating: 0
[1]; 500 g ai/ha
  Ryegrass, Italian plant response rating: 0
[2]; 125 g ai/ha
  Barnyardgrass plant response rating: 0
[2]; 500 g ai/ha
  Barnyardgrass plant response rating: 0
[3]; 125 g ai/ha
  Foxtail, Giant plant response rating: 100
[3]; 500 g ai/ha
  Foxtail, Giant plant response rating: 100
[4]; 125 g ai/ha
  Ragweed plant response rating: 0
[4]; 500 g ai/ha
  Ragweed plant response rating: 0
[5]; 62 g ai/ha, scale of 0 to 100
  Plant response rating, Blackgrass: 0
[5]; 125 g ai/ha, scale of 0 to 100
  Plant response rating, Blackgrass: 0
[5]; 16 g ai/ha, scale 0 to 100
  Plant response rating, Blackgrass: 0
[5]; 31 g ai/ha, scale 0 to 100
  Plant response rating, Blackgrass: 0
Corn (Zea mays); 62 g ai/ha, scale of 0 to 100
  Plant response rating, Corn: 0
Corn (Zea mays); 125 g ai/ha, scale of 0 to 100
  Plant response rating, Corn: 5
Corn (Zea mays); 16 g ai/ha, scale 0 to 100
  Plant response rating, Corn: 0
Corn (Zea mays); 31 g ai/ha, scale 0 to 100
  Plant response rating, Corn: 0
[6]; 62 g ai/ha, scale of 0 to 100
  Plant response rating, Crabgrass, Large: 80
[6]; 125 g ai/ha, scale of 0 to 100
  Plant response rating, Crabgrass, Large: 98
[6]; 16 g ai/ha, scale 0 to 100
  Plant response rating, Crabgrass, Large: 0
[6]; 31 g ai/ha, scale 0 to 100
  Plant response rating, Crabgrass, Large: 35
[7]; 62 g ai/ha, scale of 0 to 100
  Plant response rating, Foxtail, Giant: 65
[7]; 125 g ai/ha, scale of 0 to 100
  Plant response rating, Foxtail, Giant: 75
[7]; 16 g ai/ha, scale 0 to 100
  Plant response rating, Foxtail, Giant: 5
[7]; 31 g ai/ha, scale 0 to 100
  Plant response rating, Foxtail, Giant: 30
[8]; 125 g ai/ha, scale of 0 to 100
  Plant response rating, Lambsquarters: 55
[8]; 16 g ai/ha, scale 0 to 100
  Plant response rating, Lambsquarters: 10
[8]; 31 g ai/ha, scale 0 to 100
  Plant response rating, Lambsquarters: 25
[8]; 62 g ai/ha, scale 0 to 100
  Plant response rating, Lambsquarters: 30
[9]; 125 g ai/ha, scale of 0 to 100
  Plant response rating, Morningglory: 35
[9]; 16 g ai/ha, scale 0 to 100
  Plant response rating, Morningglory: 0
[9]; 31 g ai/ha, scale 0 to 100
  Plant response rating, Morningglory: 10
[9]; 62 g ai/ha, scale 0 to 100
  Plant response rating, Morningglory: 10
[10]; 125 g ai/ha, scale of 0 to 100
  Plant response rating, Nutsedge, Yellow: 5
[10]; 16 g ai/ha, scale 0 to 100
  Plant response rating, Nutsedge, Yellow: 0
[10]; 31 g ai/ha, scale 0 to 100
  Plant response rating, Nutsedge, Yellow: 0
[10]; 62 g ai/ha, scale 0 to 100
  Plant response rating, Nutsedge, Yellow: 0
[11]; 125 g ai/ha, scale of 0 to 100
  Plant response rating, Oilseed Rape: 100
[11]; 16 g ai/ha, scale 0 to 100
  Plant response rating, Oilseed Rape: 10
[11]; 31 g ai/ha, scale 0 to 100
  Plant response rating, Oilseed Rape: 55
[11]; 62 g ai/ha, scale 0 to 100
  Plant response rating, Oilseed Rape: 100
[12]; 125 g ai/ha, scale of 0 to 100
  Plant response rating, Ragweed: 0
[12]; 16 g ai/ha, scale 0 to 100
  Plant response rating, Ragweed: 0
[12]; 31 g ai/ha, scale 0 to 100
  Plant response rating, Ragweed: 0
[12]; 62 g ai/ha, scale 0 to 100
  Plant response rating, Ragweed: 0
[13]; 125 g ai/ha, scale of 0 to 100
  Plant response rating, Ryegrass, Italian: 5
[13]; 16 g ai/ha, scale 0 to 100
  Plant response rating, Ryegrass, Italian: 0
[13]; 31 g ai/ha, scale 0 to 100
  Plant response rating, Ryegrass, Italian: 0
[13]; 62 g ai/ha, scale 0 to 100
  Plant response rating, Ryegrass, Italian: 0
Soybean (Glycine max); 125 g ai/ha, scale of 0 to 100
  Plant response rating, Soybean: 60
Soybean (Glycine max); 16 g ai/ha, scale 0 to 100
  Plant response rating, Soybean: 0
Soybean (Glycine max); 62 g ai/ha, scale 0 to 100
  Plant response rating, Soybean: 10
[14]; 125 g ai/ha, scale of 0 to 100
  Plant response rating, Velvetleaf: 40
[14]; 16 g ai/ha, scale 0 to 100
  Plant response rating, Velvetleaf: 0
[14]; 31 g ai/ha, scale 0 to 100
  Plant response rating, Velvetleaf: 0
[14]; 62 g ai/ha, scale 0 to 100
  Plant response rating, Velvetleaf: 10
[15]; 125 g ai/ha, scale of 0 to 100
  Plant response rating, Waterhemp: 100
[15]; 16 g ai/ha, scale 0 to 100
  Plant response rating, Waterhemp: 85
[15]; 31 g ai/ha, scale 0 to 100
  Plant response rating, Waterhemp: 100
[15]; 62 g ai/ha, scale 0 to 100
  Plant response rating, Waterhemp: 100
[16]; 125 g ai/ha, scale of 0 to 100
  Plant response rating, Wheat: 10
[16]; 16 g ai/ha, scale 0 to 100
  Plant response rating, Wheat: 0
[16]; 31 g ai/ha, scale 0 to 100
  Plant response rating, Wheat: 0
[16]; 62 g ai/ha, scale 0 to 100
  Plant response rating, Wheat: 0
